Four compounds from patent publication US5756491A, “Antiviral cobalt-organic compounds” (priority 1991, dated 1998) can be followed below.

SMILES strings stand for the structures.

The test system of one series is HSV-2 (MS strain). As to the kind of experiment: Vaginal virus replication in primary genital HSV-2 infection of guinea pigs. The format is in vivo, Female Hartley strain guinea pigs. Particulars: for # Infected/# Inoculated / Mean Peak Virus Titer / P-Value for Mean Peak Virus Titer / Virus Titer-Day Area Under Curve: 20 mg/ml; for infectivity rate: treatment beginning 6 h after infection. On the procedure: A series of studies were carried out to compare the activity of inventive antiviral Compounds 23, 76, and 82 in a primary genital HSV-2 infection of guinea pigs. The experiments were placebo-controlled and uninfected animals were treated with three concentrations of each of the preparations to assess skin irritation and determine the maximum tolerated dose.
The MS strain of HSV-2 was utilized for the experimental animal infection. Female Hartley strain guinea pigs (Charles River Breeding Laboratories, Kingston, N.Y.) weighing 250-300 g were inoculated intravaginally with 1.4×10^5 plaque forming units of HSV-2 one hour after being swabbed for the removal of vaginal secretions.
Groups of 10 infected guinea pigs were treated topically as stated above with 20 mg/ml (the maximum tolerated dose) of each compound beginning 6 h or 24 h after inoculation with HSV-2.
To determine the effect of treatment on vaginal virus replication, swabs of vaginal secretions were obtained on days 1, 3, 5, 7, and 10 after HSV-2 inoculation, placed in a tube containing 2.0 ml of media, vortexed and frozen at -70° until titrated for HSV-2. When all samples were collected, they were thawed, diluted serially and HSV-2 titers were determined using rabbit kidney cells in a microtiter CPE assay. Mean peak virus titers and areas under the virus titer-day curves were calculated and analyzed.
The number of animals infected over the number inoculated, lesion score-day areas and virus titer-day areas under the curve, peak lesion scores and peak virus titers between untreated and placebo-treated or placebo-treatedand drug-treated animals were compared using the Mann-Whitney U rank sum test. A p-value of 0.05 or less was considered significant.

The subject of another series is HSV-1. As to the kind of experiment: HSV-1 plaque reduction assay. To be noted: for IC50: toxicity IC50. Set-up: IC50: unit not given beside the values. The format is cell-based. On the procedure:
(§1) Two days prior to use, HFF cells are plated into six well plates and incubated at 37° C. with 5% CO2 and 90% humidity. On the date of assay, the drug is made up at twice the desired concentration in 2×MEM and then serially diluted 1:5 in 2×MEM using six concentrations of drug. The initial starting concentration is usually 200 μg/ml down to 0.06 μg/ml. The virus to be used is diluted in MEM containing 10% FBS to a desired concentration which will give 20-30 plaques per well. The media is then aspirated from the wells and 0.2 ml of virus is added to each well in duplicate with 0.2 ml of media being added to drug toxicity wells. The plates are then incubated for one hour with shaking every fifteen minutes. After the incubation period, an equal amount of 1% agarose was added to a equal volume of each drug dilution. This will give final drug concentrations beginning with 100 μg/ml and ending with 0.03 μg/ml and a final agarose overlay concentration of 0.5%. The drug agarose mixture is applied to each well in 2 ml volume and the plates then incubated for three days, after which the cells were stained with a 1.5% solution of neutral red. At the end of 4-6 hr incubation period, the stain is aspirated, and plaques counted using a stereomicroscope at 1×magnification.
(§2) The procedure for the liquid overlay plaque assay is similar to that using the agarose overlay. The procedure for adding the virus is the same as for the regular plaque assay. The drugs are made up in a concentration to be used in MEM with 2% FBS. The drugs are not made up at 2×concentration as in previous assays but are made up at the desired concentration. For HSV-1 and HSV-2 assays, an antibody preparation obtained from Baxter Health Care Corporation is diluted 1:500 and added to the media that the drug is diluted in. For CMV and VZV, no antibody in the overlay is utilized. For the CMV assay, additional medium without new drug is added on day six and allowed to incubate for a total of 11 days. For VZV, additional media is added on day five and incubated for a total of eight days. At the end of the incubation period for all of the assays, the medium is removed, the cells washed and then stained with 0.1% crystal violet solution for ten minutes. The cells are then rinsed several times to remove any excess crystal violet and plaques enumerated using a stereomicroscope.
(§3) I. EC50 values were also determined for each of the viruses tested for known antiviral agents. The comparison compound was ACV for all viruses except for HCMV aherein DHPG was the comparison compound. In Table 26, these comparison EC50 values are indicated with an asterisk. In Table 27, the drug FIAU (2'-fluoro-5-iodo-arabinosyl-uracil) was used as a control.
Background: Plaque reduction counts the foci of infection that form in a cell layer.

The subject of a further series is HSV-2. In words: HSV-2 plaque reduction assay. The format is cell-based. Set-up: unit not given beside the values. Particulars: for IC50: toxicity IC50. On the procedure: as §1, §2, §3
How the values of series [1] were obtained:
A stock solution of each compound to be tested at a concentration of 5 mg/ml was prepared. The stock solution was serially diluted in Hank's Balanced Salt Solution (HBSS) to obtain final drug concentrations of 5, 2, 1, 0.5, 0.1, 0.01, 0.001 and 0.0001 mg/ml. […] In such cases, the highest dissolved concentration that could be obtained was utilized.
Concentrations of compounds 93, 96, and 23 were prepared as follows: A stock solution of each compound at a concentration of 5 mg/ml was made. This stock solution was serially diluted in Hanks Balanced Salt Solution to obtain final drug concentrations of: 5, 2, 1, 0.5, 0.1, 0.01, 0.001, and 0.0001 mg/ml. Five hundred μl of each drug concentration were added to triplicate infected monolayers.

As to `CC1=CC(C)=[N+]2CC[N+]3=C(C)C=C(C)[O][Co-3]23([NH3+])([NH3+])[O]1.[Cl-]` [Compound 23, reference compound], in the series on HSV-2 (MS strain) (started +6h), the “# Infected/# Inoculated” value was 5/10, the “Mean Peak Virus Titer” value was found to be 1.1, the “P-Value for Mean Peak Virus Titer” value is recorded as less than 0.001 and the “Virus Titer-Day Area Under Curve” value turned out to be 1.7. Moreover, in the series on HSV-2 (MS strain) (started +24h), the “# Infected/# Inoculated” value is 10/10, the “Mean Peak Virus Titer” value is recorded as 4.1 and the “Virus Titer-Day Area Under Curve” value amounted to 14.5. In the series on HSV-2 (MS strain), the infectivity rate is 50%. In the series with HSV-1, this compound showed an EC50 greater than 4 and an IC50 of 7.0. In the series with HSV-2, this compound gave an EC50 greater than 4 and an IC50 of 7.0.
`CC([O-])=CC(C)=NCCN=C(C)C=C(C)[O-].[Cl-].[Co+3].c1c[nH]cn1.c1c[nH]cn1` [Compound 82]: in the series with HSV-2 (MS strain) (started +6h), the “# Infected/# Inoculated” value is reported as 5/10, the “Mean Peak Virus Titer” value is 1.1, the “P-Value for Mean Peak Virus Titer” value is given as less than 0.001 and the “Virus Titer-Day Area Under Curve” value is on record as 3.3. In the series with HSV-2 (MS strain) (started +24h), the “# Infected/# Inoculated” value is 10/10, the “Mean Peak Virus Titer” value was determined as 4.6 and the “Virus Titer-Day Area Under Curve” value is 26.4. The “effect on virus titer AUC” value with HSV-2 (MS strain) (started +24 h) is listed as “failed to alter the virus titer AUC”. Besides, in the series on HSV-2 (MS strain), the infectivity rate is given as 50%.
Turning to `CC(=NCCN=C(C)C(Cl)=C(C)[O-])C(Cl)=C(C)[O-].[Br-].[Co+3].c1c[nH]cn1.c1c[nH]cn1` [Compound 93], in series [1], the “solubility at 5 and 2 mg/ml” value is recorded as “not to be soluble”.
As for `CC([O-])=CC(C)=NCCN=C(C)C=C(C)[O-].Cc1ncc[nH]1.Cc1ncc[nH]1.[Br-].[Co+3]` [Compound 96], in the series with HSV-1, the EC50 is recorded as greater than 4 and the IC50 is given as 10.2. In the series with HSV-2, this compound came in with an EC50 greater than 4 and an IC50 of 10.2. In addition, the “solubility of stock solution at 1 mg/ml” value in series [1] was “moderately insoluble”.
